For 108 molecules, melting point results are on record in a melting point compilation (Tetko et al.).

Molecules are shown by their SMILES.

Usually melting point stands for the temperature of the solid-liquid transition. In turn, `O=C1/C(=C/c2ccc([N+](=O)[O-])cc2)SC(=S)N1CN1CCCCC1` had a melting point of 160 °C. Then `COC(=O)NS(=O)(=O)c1ccc(N)cc1`, with 230 °C; and `CC1(C)C(O)C(C)(C)C1O` (stereo not drawn), with 126 to 134 °C; and `CCCCCCCCCCCCOc1ccc(C(C)=O)cc1`, with 44 to 47 °C.

Regarding `Cn1ccc2c1CC(C)(C)CC2=O`, the melting point was found to be 109 °C. Then `Cc1ccc(C(F)(F)F)cc1N`, with 38 °C; and `O=[N+]([O-])c1ccc(NN=C(Cc2ccccc2)C(O)Cc2ccccc2)cc1` (stereo not drawn), with 122 °C.

The molecule `O=C(O)/C=C/c1cccc2c(Br)cccc12` yielded a melting point of 269 to 270 °C. Regarding `O=S(=O)(O)CCN1CCN(CCS(=O)(=O)O)CC1`, the melting point came to 300 °C. The value for `Nc1ccc(N)c(N)c1` was 97.3 °C; that for `O=C(O)C1(C(F)(F)F)CCCCC1` was 69.5 °C. With `O=C(Nc1cccc(N=Nc2cccc(NC(=O)c3ccccc3)c2)c1)c1ccccc1`, the melting point amounted to 285 °C.

As to `CN(c1ccccc1)c1ccccc1`, the melting point is -7.6 °C. For `CCN(CC)C(=O)COC(=O)c1ccccc1`, the melting point was determined as 72.5 °C. In turn, `Cc1nc(-c2ccc(Cl)cc2)sc1C(=O)O` registered a melting point of 251 °C.

Molecule `COc1ccc(-c2csc(/C(C#N)=N/Nc3cccc(C)c3C)n2)cc1` registered a melting point of 164 °C.

With `O=[N+]([O-])c1ccc(NN=C(c2ccccc2)c2ccccc2)cc1`, the melting point came out at 156 °C.

As to `Cc1ccnc(NS(=O)(=O)c2ccc(N)cc2)n1`, the melting point was found to be 234 °C.

Consider `FC(F)(Cl)C(F)(F)Cl`, for which the melting point was -94 °C. The molecule `Cc1noc(-c2ccc(C(=O)Cl)cc2)n1` gave a melting point of 115 to 117 °C.

Molecule `O=C(Cl)c1cccnc1Sc1ccccc1` returned a melting point of 71 to 74 °C.

Regarding `NNC(=O)c1cccc(O)c1`, the melting point was found to be 158 °C. The value for `O=C(C(=O)c1cccc2ccccc12)c1ccccc1` was 102 °C. On to `C#CCC`, for which the melting point is -126 °C.

For `COc1ccc([N+](=O)[O-])c(C(=O)O)c1`, the melting point came out at 133 °C. The value for `COC(=O)CC[C@@H](C)[C@H]1CC[C@H]2[C@@H]3C(=O)C[C@@H]4CCCC[C@]4(C)[C@H]3CC[C@]12C` was 92.9 °C; that for `CC1(C)C2CCC(C2)C12COC(=O)N2` (single isomer, unassigned; (-)) was 227 to 229 °C.

In turn, `CCNC(=O)CC#N` had a melting point of 73 to 74 °C. `Cc1cc(=O)n(-c2ccccc2)n1C`: the melting point was 114 °C. The value for `Nc1nn2c(C(F)(F)F)cc(=O)[nH]c2c1/N=N/c1cccc(C(F)(F)F)c1` was 291 °C.

`Nc1ccc(S(=O)(=O)Nc2cnc3ccccc3n2)cc1` registered a melting point of 248 °C. The value for `O=c1[nH]cnc2c1ncn2C1CC(O)C(CO)O1` (stereo not drawn) was 250 °C; that for `BrCCCCCBr` was -34 °C. As for `O=S(=O)(Cl)c1ccccc1Cl`, the melting point turned out to be 27 °C. Then `CC12CCC3C(CC=C4CC(Cl)CCC43C)C1CCC2=O` (stereo not drawn), with 157 °C; and `O=C(NC(Cc1ccccc1)C(=O)O)OCc1ccccc1` (stereo not drawn), with 88.5 °C. For the molecule `O=C(CCCN1CCC(n2c(=S)[nH]c3ccccc32)CC1)c1ccc(F)cc1`, the melting point is 202 °C. The value for `COc1ccc(Oc2ncccc2[N+](=O)[O-])cc1` was 95 to 101 °C.

Molecule `CC(=O)N1CCCC(C)C1` (stereo not drawn) came in with a melting point of -13.6 °C. On to `O=[N+]([O-])c1ccc(NN=C2c3ccccc3C2Cl)c([N+](=O)[O-])c1` (stereo not drawn), for which the melting point stood at 228 °C. On to `CCC1CC(NC(C)=O)CC(C)(C)N1O` (stereo not drawn), for which the melting point was 142 to 145 °C. Molecule `Cc1ccccc1N` came in with a melting point of -16.3 °C. On to `Cc1cc(C)c(O)cc1C`, for which the melting point stood at 72 °C. The value for `Cc1oc(S(=O)(=O)N2CCCCC2)cc1C(=O)O` was 194 to 195 °C; that for `Cc1cc(O)c(C(=O)c2ccccc2)cc1Cl` was 138 to 142 °C; that for `Cn1ccc(C(=O)O)n1` was 154 °C. On to `COc1ccc(-c2csc(/C(C#N)=N\Nc3ccc(Br)cc3)n2)cc1`, for which the melting point stood at 196 °C. Then `O=C1OC(=O)C2CC(c3ccccc3)CCC12` (stereo not drawn), with 105 to 106 °C; and `O=C(O)c1ccccc1P(c1ccccc1)c1ccccc1`, with 178 °C. Consider `N#C/C(=C/c1ccc(Cl)cc1Cl)c1nc(-c2ccc([N+](=O)[O-])cc2)cs1`, for which the melting point is 210 °C. Then `Nc1nc(=O)n(C2CSC(CO)O2)cc1F` (stereo not drawn), with 138 °C; and `O=C1CSc2ccccc2N1`, with 178 to 181 °C; and `CC(C)C1=C(O)C(=O)C2=C(CC(O)C3C(C)(C)CCCC23C)C1=O` (stereo not drawn), with 188 °C. In turn, `CCN(CC)C(=O)C1C=C2c3cccc4[nH]cc(c34)CC2N(C)C1` (stereo not drawn) had a melting point of 82.5 °C. Then `N#CC1(c2ccc(F)cc2Cl)CCCCC1`, with 58 to 65 °C. The value for `CC1C(=O)C23C4CC5C(C)(C)CCC(O)C56COC(CC1C2OC(C)(C)O4)C63` (stereo not drawn) was 204 °C. Then `CC(CCC(=O)NCC(=O)O)C1CCC2C3C(O)CC4CC(O)CCC4(C)C3CC(O)C12C` (stereo not drawn), with 166 °C.

In turn, `O=S(=O)(O)c1cccc2cccc(Cl)c12` showed a melting point of 145 to 147 °C.

For `N#CC1=C(C#N)C(=O)C(NCCCc2ccccc2)=C(Cl)C1=O`, the melting point stood at 179 °C. The value for `CC12CCC3c4ccc(OC(=O)N(CCCl)CCCl)cc4CCC3C1CCC2O` (stereo not drawn) was 104 °C; that for `COc1cc(I)c(OC)cc1C` was 84 to 86 °C. Then `CC(=CC=C(C)C(=O)O)C(=O)O`, with 221 °C. Then `O=C(Oc1cccc2c1CCC2=O)c1ccccc1`, with 78 to 80 °C. Regarding `OCC1CC1`, the melting point is -60 °C. `Brc1ccncc1` yielded a melting point of 0.5 °C. Then `Cc1cccc(C(=O)NCC(=O)O)c1`, with 138 to 142 °C; and `CC1=C(C(=O)OCc2ccccc2)C(c2ccccc2)NC(=O)N1C` (stereo not drawn), with 118 °C.

As to `O=C(O)CCc1ccccc1`, the melting point came to 107 °C. `Cc1nc(-c2ccc(Br)cc2)no1` yielded a melting point of 98 to 99 °C. Then `CCCC(O)C=CC=CC=CC#CC#CCCCO` (stereo not drawn), with 54 °C. The value for `O=C(O)c1ccc2c(c1)CCO2` was 185 to 188 °C; that for `CN(C)C(=O)NC1CC2CC1C1CCCC21` (stereo not drawn) was 177 °C; that for `Cn1c(=O)c2c(nc(Cl)n2CC(=O)O)n(C)c1=O` was 198 to 199 °C. Molecule `COC1CCCCCCCCCCC1` displayed a melting point of 8 °C. Take `Nc1nc(Br)c2ccccc2c1Cc1ccccc1`: the melting point fell in the range of 155 to 156 °C. Molecule `COc1ccccc1C1Nn2c(nnc2-c2cccnc2)S1` (stereo not drawn) came in with a melting point of 221 °C. Then `CN(C)C(=N)N(C)C`, with -30 °C; and `Cc1n[nH]c2c(=O)n(-c3ccc(Cl)cc3)c(C)nc12`, with 313 to 315 °C; and `O=C1NCc2ccccc21`, with 151 °C. The value for `Oc1cncc(F)c1` was 163 °C. The value for `CCCCCCCCCCCCc1ccccc1S(=O)(=O)O` was 10 °C; that for `Cc1ccc(C(=O)CCCCl)cc1C` was 46 to 49 °C; that for `CCCCCCCCC=CCCCCCCCCCCCCO` was 35 °C. The molecule `Cc1cccc(N=Nc2ccc(N(C)C)cc2)c1` had a melting point of 138 °C. Then `CC(C)(C)c1cc(N)cc(C(C)(C)C)c1`, with 56 °C; and `FC(F)(F)C1(F)C(F)(F)C(F)(F)C(F)(F)C2(F)C(F)(F)C(F)(F)C(F)(F)C(F)(F)C12F` (stereo not drawn), with -70 °C; and `COc1cc(O)c2c(=O)c(O)c(-c3ccc(OCc4ccccc4)c(O)c3)oc2c1`, with 208 °C. Then `O=[N+]([O-])C=Cc1ccc2c(c1)OCO2`, with 159 to 163 °C; and `O=C(O)c1ccc(Cl)cc1Br`, with 159 to 161 °C.

Turning to `C/C(=N/NC(N)=S)C(=O)Nc1ccc(Br)cc1`, the melting point lay within 228 to 230 °C. The molecule `C/C(=N/NC(N)=O)C(C)Cc1ccccc1` (stereo not drawn) had a melting point of 112 °C. The value for `COc1ccc(C(=O)c2cccc(Cl)c2)cc1[N+](=O)[O-]` was 109 to 114 °C; that for `CCC(=NNc1cccc(NN=C(CC)C(=O)O)c1)C(=O)O` was 190 °C; that for `Cc1cccc(OCC(=O)O)c1` was 104 °C. The value for `CC(=O)OC1CC[C@H]2[C@@H]3[C@H](C)CC4CC(=O)CC[C@]4(C)[C@H]3CC[C@]12C` (stereo partly drawn) was 142 °C; that for `CCCCCCCCCCCCCCCCOc1ccc(N)cc1` was 60 °C. `CC(=O)c1ccc(N2CCCC2)cc1` gave a melting point of 129 °C. The molecule `CC1=NN(c2ccccc2)C(=O)C1=Cc1c(O)c2cccc(C)c2[nH]c1=O` returned a melting point of 171 °C. Then `Nc1cc(Cl)c(S(N)(=O)=O)cc1S(N)(=O)=O`, with 254 °C; and `Fc1c(F)c(F)c(P(c2ccccc2)c2ccccc2)c(F)c1F`, with 71 °C.

Molecule `Cc1ccc(N=c2sccn2C)c(C)c1` came in with a melting point of 44 °C.

Regarding `OCCCCCCCCCCCBr`, the melting point was 46 °C. Then `Cc1cc(CO)c(-c2ccccc2)o1`, with 56 to 59 °C.

Turning to `O=C(c1ccccc1)c1cccc(C(=O)c2ccccc2)c1`, the melting point turned out to be 98.5 °C. In turn, `CN(C)c1ccc2c(C(F)(F)F)cc(=O)oc2c1` registered a melting point of 147 to 149 °C.

Molecule `COc1ccc2nonc2c1` came in with a melting point of 99 to 102 °C.

`O=C(Cl)c1ccc(CCl)cc1`: the melting point was in the range of 29 to 33 °C. Molecule `CC(=O)N(c1ccccc1)c1cc(N(C(C)=O)c2ccccc2)c([N+](=O)[O-])cc1[N+](=O)[O-]` returned a melting point of 233 °C.
